Among the test systems are EKVX NSCLC; MOLT-4 leukemia; SK-MEL-5 melanoma; RPMI-8226 leukemia; UO-31 renal; CCRF-CEM leukemia; TK-10 renal; SNB-19 CNS; MDA-MB-231 breast; MDA-N.
Assay in all cases: growth of human tumour cells (NCI), 48 h

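How tested: cells in 96-well plates exposed to compound for 48 hours at five concentrations. The concentration for 50% growth inhibition is given as GI50. TGI: concentration producing complete growth inhibition.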 Where a SMILES comes first, the peptide text is derived from it. [ ]: non-standard residue; d: D form. The star is where a group is joined. ξ: configuration not given here. X16 = COC1=CC(=O)N(C(=O)C(O*)C(C)C)C1Cc1ccccc1; ξNMe2Val = CC(C)C(C(=O)*)N(C)C; NMeV = CN[CH](C(=O)O)C(C)C

Regarding `Oc1c(Cl)c2nccnc2c2ccccc12`, the TGI with EKVX NSCLC, with MOLT-4 leukemia, in the test on SK-MEL-5 melanoma, with RPMI-8226 leukemia, in the test with UO-31 renal and with CCRF-CEM leukemia was above 100 µM throughout. In the test with TK-10 renal, this compound came in with a TGI above 100 µM.

Regarding `COc1ccc(C[C@@H]2CN(C(=O)c3ccccc3)[C@H](Cc3ccc(O)cc3)CN2C(=O)c2ccccc2)cc1Br`, the TGI with EKVX NSCLC, in the test on MOLT-4 leukemia, with RPMI-8226 leukemia, in the test with UO-31 renal, in the test on CCRF-CEM leukemia and in the test on TK-10 renal was above 100 µM each time. In the test on SNB-19 CNS, this compound registered a TGI above 100 µM.

For `CSc1nc2c(c(N(C)C)n1)C=Nn1c(nc3ccccc31)S2`, the TGI in the test with MOLT-4 leukemia, in the test on MDA-MB-231 breast, in the test on SK-MEL-5 melanoma, with RPMI-8226 leukemia, in the test with UO-31 renal and in the test on MDA-N was above 100 µM each time. Further, the TGI in the test with TK-10 renal and with SNB-19 CNS was above 100 µM throughout.

Turning to `C=CCN1C(=O)CS/C1=N\NC(=O)c1c(C)nc2sccn12`, the TGI in the test on EKVX NSCLC, in the test with MOLT-4 leukemia, in the test with SK-MEL-5 melanoma, in the test with RPMI-8226 leukemia, with CCRF-CEM leukemia and with TK-10 renal was above 100 µM each time. For the same compound, the TGI with SNB-19 CNS was above 100 µM.

Take `N#CC(c1ccc(O)cc1)N1CCN(C(C#N)c2ccc(O)cc2)CC1` (configuration not stated): the TGI with EKVX NSCLC is above 76.1 µM; in the test on MOLT-4 leukemia, above 100 µM; in the test with MDA-MB-231 breast, 55.8 µM; with SK-MEL-5 melanoma, above 100 µM; in the test with RPMI-8226 leukemia, above 100 µM; with UO-31 renal it was above 100 µM. Also, the TGI with CCRF-CEM leukemia is above 100 µM; in the test on TK-10 renal, above 100 µM; with SNB-19 CNS, 75.7 µM.

Turning to `CCOC(=O)c1ccc(NC2Oc3cc4c(cc3C(c3cc(OC)c(OC)c(OC)c3)C2C)OCO4)cc1` (configuration not stated), the TGI is above 100 µM with EKVX NSCLC; 11.5 µM with MOLT-4 leukemia; 2.24 µM with MDA-MB-231 breast; 1.49 µM in the test with SK-MEL-5 melanoma; 4.92 µM in the test with RPMI-8226 leukemia; 4.65 µM in the test on UO-31 renal. The TGI is above 20.3 µM with CCRF-CEM leukemia, 99.5 µM in the test on TK-10 renal and above 100 µM in the test with SNB-19 CNS.

As to `C=C/C(C)=C/[C@H](C)C(=O)C[C@H](O)CC1CC(=O)NC(=O)C1`, the TGI in the test on EKVX NSCLC, with MOLT-4 leukemia, in the test with SK-MEL-5 melanoma, in the test with RPMI-8226 leukemia, in the test on UO-31 renal and in the test on CCRF-CEM leukemia was above 100 µM each time. The compound also showed a TGI in the test on SNB-19 CNS above 94.7 µM.

As for `O=C1Nc2ccccc2C(=O)OC(Cc2ccccc2)=Nc2ccccc21`, the TGI with EKVX NSCLC, in the test on MOLT-4 leukemia, in the test with SK-MEL-5 melanoma, in the test on RPMI-8226 leukemia, with UO-31 renal and in the test on MDA-N was above 100 µM throughout. Besides, the TGI in the test on CCRF-CEM leukemia, in the test with TK-10 renal and in the test with SNB-19 CNS was above 100 µM each time.

Turning to `COC(=O)[C@]1(C)CCCn2c(=O)n(-c3ccccc3)c(=O)n21`, the TGI in the test with EKVX NSCLC, in the test with MOLT-4 leukemia, with MDA-MB-231 breast, with SK-MEL-5 melanoma, in the test on RPMI-8226 leukemia and in the test with UO-31 renal was above 100 µM throughout. The TGI with CCRF-CEM leukemia, in the test with TK-10 renal and in the test on SNB-19 CNS was above 100 µM in each case.

For the compound `CC(C)(C)C1CC[C@H]2c3c([nH]c4ccc(Br)cc34)[C@H]3C(=O)N(c4ccccc4)C(=O)[C@H]3[C@H]2C1` (some centres not stated), the TGI in the test with EKVX NSCLC is above 100 µM; in the test on MOLT-4 leukemia, 71.6 µM; with SK-MEL-5 melanoma it was above 100 µM; with RPMI-8226 leukemia, above 100 µM; in the test with UO-31 renal, above 100 µM; in the test on CCRF-CEM leukemia it was 20.1 µM. In addition, the TGI was above 100 µM in the test on TK-10 renal and 66.9 µM in the test with SNB-19 CNS.

Turning to `O=C(NCc1cn(Cc2cccc(Oc3ccccc3)c2)nn1)c1cccnc1Nc1ccccc1`, the GI50 was 5.18 µM with EKVX NSCLC; 3.74 µM in the test on MOLT-4 leukemia; 2250 nM in the test with MDA-MB-231 breast; 3.89 µM with SK-MEL-5 melanoma; 3.61 µM with RPMI-8226 leukemia; 2490 nM in the test on UO-31 renal. The GI50 is 3.34 µM with CCRF-CEM leukemia, 4.3 µM in the test with TK-10 renal and 3270 nM in the test with SNB-19 CNS. The TGI in the test on EKVX NSCLC was above 100 µM; in the test on MOLT-4 leukemia, above 100 µM; in the test with MDA-MB-231 breast, 5.97 µM; in the test with SK-MEL-5 melanoma it was 28.3 µM; in the test with RPMI-8226 leukemia, above 100 µM; with UO-31 renal it was above 100 µM. In addition, the TGI is above 100 µM with CCRF-CEM leukemia, 28.4 µM with TK-10 renal and above 100 µM in the test with SNB-19 CNS.

`CN(C)[C@@H]1C(=O)C(C(N)=O)=C(O)[C@@]2(O)C(=O)C3=C(O)c4c(O)cccc4C[C@H]3C[C@@H]12`: the TGI was found to be 5.55 µM in the test on MOLT-4 leukemia; 3.63 µM in the test with SK-MEL-5 melanoma; 4.08 µM in the test with UO-31 renal; 5.65 µM in the test on CCRF-CEM leukemia; 7.53 µM with TK-10 renal; 4.47 µM with SNB-19 CNS.

`OCC(O)COc1ccc(Br)cc1` (configuration not stated): the TGI in the test with EKVX NSCLC, in the test on SK-MEL-5 melanoma, in the test with RPMI-8226 leukemia, with UO-31 renal, with CCRF-CEM leukemia and in the test with TK-10 renal was above 100 µM throughout. The compound further returned a TGI in the test on SNB-19 CNS above 100 µM.

Turning to `COC1=CC(=O)N(C(=O)C(OC(=O)C2CCCN2C(=O)C2CCCN2C(=O)C(C(C)C)N(C)C(=O)C(NC(=O)C(C(C)C)N(C)C)C(C)C)C(C)C)C1Cc1ccccc1` (configuration not stated) (ξNMe2Val-V[NMeV]PP-X16; configuration not given here), the TGI with EKVX NSCLC is 3.95 µM; with RPMI-8226 leukemia, above 4 µM; with UO-31 renal, above 4 µM; with MDA-N it was 0.000275 µM; in the test on CCRF-CEM leukemia, 0.00744 µM; in the test on SNB-19 CNS it was 0.118 µM. Moreover, the GI50 was below 0.0004 µM in the test on MOLT-4 leukemia; below 0.0004 µM in the test on SK-MEL-5 melanoma; below 0.0004 µM in the test on RPMI-8226 leukemia; above 4000 nM in the test on UO-31 renal; 2.67 nM in the test on SNB-19 CNS.

For the origin of these results see PubChem BioAssay (NCI).
